Assay results taken from patent US20220401385A1, “Combination Therapy Based on PD-1 Signaling Inhibitors” (Kyoto University, priority 2019, published 2022).

Legend:
CD44 low CD8+ T cells = assay: Mitochondria-related proteomics in vitro, CD44 low cells; format: cell-based, mice; details: late phase, 44 hours after SPD stimulation
Experimental: FIG. 6 CD8^+ T cells were isolated from the spleen of mice without tumor inoculation, and further isolated into CD44^+ (CD44 high) and CD44^− (CD44 low) cell populations. CD44 low cells and CD44 high cells were simulated with CD3/CD28 antibody beads and SPD (0.2 μM). After 1 hour and 44 hours, cells were collected and proteomics analyses regarding mitochondria-related proteins were conducted. A heat map showing the categories of respective signaling pathways, associated protein names and comparison of their expression levels is given.
T cells were prepared by two methods. For in vivo analysis, 13 days after tumor inoculation and 3 days after the start of therapy, draining lymph nodes from 5 mice were pooled, followed by isolation of CD8^+ T cells. From the isolated CD8^+ T cells, three samples each consisting of 1×10^6 cells were prepared and used for analysis. For in vitro experiments, 2×10^5 CD8^+ T cells stimulated with 0.2 μM spermidine for 1 hour were used. For mass spectrometry analysis, a Tandem Mass Tag (TMT) system or a Data Independent Acquisition (DIA) system was used. In the analysis of in vivo CD8^+ T cells (FIG. 3), those proteins which increased by 1.5-fold or more or decreased by 0.6-fold or less were extracted.

MC38 cells = assay: MC38 therapy model in aged mice, tumor growth and survival; format: in vivo; details: 56-week old mice; combination PD-L1 antibody (2 mg/kg) + SPD (2 mg/kg)
Experimental: FIG. 7 MC38 cells (5×10^5) were intradermally inoculated into 56-week old mice, which were treated along with the treatment schedule described in FIG. 1. PD-L1 antibody (2 mg/kg) and SPD (2 mg/kg) were used. a) Tumor growth curve and survival curve are shown. b) The frequency of CD8^+ T cells among lymphocytes infiltrating into tumor (in CD45^+ gate) and the absolute number of CD8^+ T cells per mg tumor 13 days after tumor inoculation are shown. c) CD8^+ T cells were isolated from spleen cells on the same schedule as b) and cultured for 20 hours under the stimulation with CD3/CD28. Cell proliferation was examined by means of ^3H uptake. d) CD8^+ T cells were isolated from draining lymph nodes on the same schedule as b) and glycolytic pathway-derived or mitochondrial metabolism-derived ATP production was calculated by Seahorse. e) Spare respiratory capacity (SRC) was also calculated in the experiment (d).
MC38 cells (5×10^5) were intradermally injected on the right flank. […] Tumors were measured on every alternate day, and tumor volumes were calculated using the formula for typical ellipsoid, π×(length×breadth×height/6).
It is known from mouse model experiments that the effect of PD-1 inhibitory antibody therapy decreases in aged mice due to their decreased immunity. […] Spare respiratory capacity (SRC) was also calculated. […]

T cells = assay: Function of oxidative phosphorylation in T cells (OCR, Seahorse); format: cell-based
Experimental: The function of oxidative phosphorylation in T cells may be measured as described below. Briefly, the oxygen consumption rate (OCR) of T cells is measured with an extracellular flux analyzer (Seahorse). Baseline OCR and the OCR for the case where carbonyl cyanide-4 (trifluoromethoxy) phenylhydrazone (FCCP), or a reagent that is activated to the maximum extent upon addition of a mitochondrial function terminating agent (oligomycin, Antimycine A/Rotenone: A/R), is added are compared and calculated (Divakaruni A S, Paradyse A, Ferrick D A, Murphy A N, Jastroch M. 2014. Analysis and Interpretation of Microplate-Based Oxygen Consumption and pH data. In Methods in Enzymology, Volume 547, Chapter 16, 309-354).
If, in the above-described measurement method, baseline OCR is increased, spare respiratory capacity (SRC) is increased, or mitochondrial ATP production rate (mitoATP) is increased, it may well be concluded that the function of oxidative phosphorylation in T cells has increased.

Structure (SMILES): NCCCCNCCCN [SPD, spermidine]
- expression levels of mitochondrial proteins and proteins of mitochondria-related metabolism (CD44 low CD8+ T cells): high
- tumor shrinking effect (MC38 cells): enhanced tumor shrinking effect
- function of oxidative phosphorylation in T cells (T cells): increased
